Blank lines part the entries; values can stand above or below the molecule they belong to. Peptide text beside a SMILES is read from it.
How the values were obtained:
[1] = test system: Sauromatum guttatum appendix; experiment: Heat production by Sauromatum guttatum appendix sections, thermocouple recording; settings: second experiment, up to 50 μM, data not shown
Method: In one example, using Sauromatum guttatum as the experimental module, on the day of inflorescence-opening, the Sauromatum appendix (a 20-40 cm-long, slender organ) becomes warm reaching a 32° C. temperature (Skubatz et al., 1991, Plant Physiol. 95:1084-1088). The heat generated by the appendix is generated by the mitochondria. This mitochondrial activity can be triggered by the addition of phenolic compounds, including but not limited to, salicylic acid, aspirin, and 2,6-dihydroxybenzoic acid. Test agents can be applied to the plant and the plant's temperature may be monitored in vivo.
FIG. 4 illustrates modulation of heat generated by aspirin (ASA) in Sauromatum guttatum appendix in the presence of various opioid peptides and the Alzheimer's peptide, Aβ 1-42. One day before heat-production, sections of the appendix were placed in different aqueous solutions containing ASA with or without an opioid peptide. […] Temperature was recorded with thermocouples attached to the section every 5 min. […]
FIG. 5 illustrates modulation of heat generated by salicylic acid (SA) in the presence of human opioid peptides (β-Endorphin, SEQ ID NO: 19 and Neuropeptide AF, SEQ ID NO: 44) and, the Alzheimer's peptide, Aβ 1-42, SEQ ID NO: 49, and, a plant virulent bacterial pathogen (Pst DC3000). […] Temperature was recorded with thermocouples attached to the sections every 5 min. […]

[2] = test system: Pseudomonas syringae pv tomato, DC3000; experiment: Arabidopsis inoculated with virulent pathogen Pst DC3000, disease symptoms; type: in vivo, Arabidopsis ecotype Columbia (Col-0); settings: 20 μl salicylic acid 1 mM and 20 μl SEQ ID NO: 15 applied together to the leaves
Method: Seeds of Arabidopsis ecotype Columbia (Col-0) were planted in potting soil. Plants were cultivated in a growth chamber with 10-h d (200 μmol m^−2s^−1 at 22° C.) and 14-h night (18° C.) cycles and 80% RH. Once a week plants were supplied with water and modified one-half strength Hoagland nutrient solution: 2 mM KNO 5 mM Ca(NO3)2 and trace elements, pH 7.
A virulent plant pathogen, Pst Pseudomonas syringae pv tomato, DC3000 was grown at 28° C. on King's medium B containing 40 mg/L tetracycline. Plants were inoculated with 1×10^7 cfu/ml of the pathogen in 0.01% Silwet L77 (v/v) (a surfactant) and distilled water 5 weeks after sowing. The bacterial suspension or a control solution (0.01% Silwet L77 in water) was then sprayed on the plant once.
Disease symptoms in Arabidopsis are water-soaked, spreading lesions, sometimes surrounded by chlorotic margin that eventually lead to yield loss and plant death.
To test the efficacy of SEQ ID NO: 15, some healthy and some disease plants were sprayed with salicylic acid in 0.01%. Silwet L77; some healthy and some disease plants were sprayed with SEQ ID NO: 15 in 0.01%. Silwet L77, and some healthy and some disease plants were sprayed with salicylic acid in combination with SEQ ID NO: 15 in 0.01%. Silwet L77. A control group of some healthy and some disease plants were sprayed with water in 0.01%. Silwet L77. […]

[3] = type: physicochemical
Method: The test article was SEQ ID NO: 1, a white powder, which was delivered in 0.9% saline. The test article formulations were prepared on the day of study and kept at room temperature until dosing. 100 mg/kg at 1 mL/kg=100 mg/mL 1.4 mL of saline added to 141.5 mg of test article, soluble.

[4] = rat, in vivo
Text: Pain is basically managed by two classes of drugs.

Molecule: FLPSEFGVDVDR [SEQ ID NO: 2]
- heat generation by the peptide [1]: did not generate heat

Molecule: O=C(O)c1ccccc1O [salicylic acid]
- systemic resistance to the virulent bacteria [2]: enough to trigger systemic resistance

- solubility in saline [3]: soluble
Molecule: CC(C)C[C@H](NC(=O)[C@@H](N)Cc1ccccc1)C(=O)N1CCC[C@H]1C(=O)N[C@@H](CO)C(=O)O [SEQ ID NO: 1, Phe-Leu-Pro-Ser] (H-FLPS-OH; N-terminus and C-terminus assumed)
- effect on brain function [4]: does not adversely affect brain function
- feeding behavior [4]: did not invoke an abnormal feeding behavior

Molecule: YGGFL [SEQ ID NO: 15]
- systemic resistance to the virulent bacteria [2]: enough to trigger systemic resistance
